Measurements from article PMC8042770, “Odorant Receptors for Detecting Flowering Plant Cues Are Functionally Conserved across Moths and Butterflies” (Molecular Biology and Evolution, 2020).

Columns and labels:
RnubOR13 = test: Xenopus oocyte voltage clamp of RnubOR13; format: cell-based, Rhyacophila nubila; conditions: test panel
Source text: We also examined the response profile of EsemOR19 from E. semipurpurella, an OR that falls close to the HarmOR42-defined clade but that is not considered as a HarmOR42 ortholog. […] We also characterized the function of RnubOR13 from R. nubila (Trichoptera), a species from a sister order of Lepidoptera. […] Unfortunately, the putative E. semipurpurella OR that would consist of EsemOR34 + 35 and that falls at the base of the HarmOR42 clade could not be tested as it is incomplete.
(§1) Functional characterization of individual ORs was performed by heterologous expression in Xenopus oocytes combined with a two-electrode voltage-clamp system ([Wang et al. 2010]). Briefly, the full-length gene of each OR and Orco were subcloned into the eukaryotic expression vector pT7TS. cRNAs were generated from linearized expression vectors using the mMESSAGE mMACHINE T7 kit (Ambion, Austin, TX). […] After incubation in nutrient solution at 18 °C for 3–5 days, the response profile of each oocyte to multiple plant odorants was recorded via a two-electrode voltage clamp (OC-725C oocyte clamp, Warner Instruments, Hamden, CT) at a holding potential of −80 mV. Data were acquired by using a Digidata 1440 A and were analyzed by pCLAMP 10.2 software (Axon Instruments Inc., Union City, CA). […]

H. armigera moths = test: Two-choice olfactometer behavioral assay, adult moths; format: in vivo, Helicoverpa armigera; conditions: females and males, 0.01 mg PAA or 50 μl 0.1% IAC, 10 h
Method: In a first step, we tested the attractiveness of PAA and a commercial mix of floral attractants, which takes PAA as its principal component (IAC) ([Cork 2016]; [Whitfield et al. 2019]), to H. armigera moths using a two-choice behavioral assay in a choice box (fig. 6A).
For adults, behavioral experiments were performed in a two-choice olfactometer according to a previous study with some modifications ([Del Socorro et al. 2010]). The olfactometer apparatus consisted of a main-chamber (60 cm × 30 cm × 25 cm) and two-choice subchambers under the main-chamber (20 cm × 15 cm × 25 cm) (fig. 6A). A metal gauze funnel (10 cm diameter) was inserted between the main-chamber and the subchambers. A hole at the bottom of the funnel allowed the moth to enter the subchamber. Clean humidified air flows (15 l/min) entered each subchamber and were exhausted by an exhaust fan. All the experiments were performed during the moth scotophase at 27 ± 1 °C. […] After 10 h, the number of moths in each subchamber was recorded. […] A selection ratio (SR) was calculated using the formula: SR = T/(T + C), where T represents the number of moths that entered the test subchamber and C represents the number of moths that entered the control subchamber. […] A quantity of 0.01 mg PAA was applied. […] The results were statistically analyzed using a χ^2 test.

HarmOR repertoire = test: Responses of the 28 functional HarmORs across odorant doses (PCA of oocyte currents); format: cell-based, Helicoverpa armigera; conditions: odorant 10^−7 M
Source text: Vectors quantifying the responses of the 28 ORs to each odorant were projected onto a 3D landscape. This 3D representation captured 78.34% (10^−4 M), 65.11% (10^−5 M), 68.89% (10^−6 M), and 84.52% (10^−7 M) of the variation in the original 28D data set across different odorant concentrations. […] In addition, the capacity of the H. armigera odor space was highly dependent on odorant concentration. As the concentrations of odorants decreased, their positions in the odor space converged, with the ability to discriminate different odorants diminishing.
Functional characterization of individual ORs was performed by heterologous expression in Xenopus oocytes combined with a two-electrode voltage-clamp system ([Wang et al. 2010]). Briefly, the full-length gene of each OR and Orco were subcloned into the eukaryotic expression vector pT7TS. cRNAs were generated from linearized expression vectors using the mMESSAGE mMACHINE T7 kit (Ambion, Austin, TX). Then, the cRNA mixture of ORx and Orco (27.6 ng each) was injected (Nanoliter 2010, WPI Inc., Sarasota, FL) into oocytes (stage V–VII). The respective Orcos of different species were used for functional studies of OR42 orthologs except for the four butterfly species (V. tameamea, P. xuthus, D. plexippus, and P. rapae), in which we used the Orco from P. xuthus. After incubation in nutrient solution at 18 °C for 3–5 days, the response profile of each oocyte to multiple plant odorants was recorded via a two-electrode voltage clamp (OC-725C oocyte clamp, Warner Instruments, Hamden, CT) at a holding potential of −80 mV. Data were acquired by using a Digidata 1440 A and were analyzed by pCLAMP 10.2 software (Axon Instruments Inc., Union City, CA).
Stock solutions of each odorant were prepared at 1 M using DMSO as a solvent, and each odorant was diluted in 1× Ringer’s solution to the indicated concentrations for electrophysiological recording. For functional screening of each HarmOR, a panel of 67 odorants belonging to three types of chemical classes: terpenes, aromatics, and aliphatics (short-chain fatty acid) were used (supplementary table S1, Supplementary Material online). For functional studies of OR42 orthologs from different species, six odorants including PAA, benzaldehyde, (E)-2-hexen-1-al, cinnamaldehyde, 2-phenylethanol, and heptanal were used.
Graphs and data statistics of OR response spectra, dose responses, EAG, and behavioral experiments were generated by Prism 7 (GraphPad Software, La Jolla, CA). A heat map was generated in Excel 2010 (Microsoft Corporation, WA). […] For tuning breadth analysis, the kurtosis values (K) were calculated by SPSS 22 (SPSS Inc., Chicago, IL) and were used to define the tuning spectra width, where smaller K values represent broader tuning spectra (fig. 1B). […]

SlitOR14 = test system: SlitOR14; set-up: method as in de Fouchier et al. 2017; conditions: ref de Fouchier et al. 2017; cited from earlier work
[1] = test system: HarmOR42 orthologs from 11 lepidopteran species; test: Xenopus oocyte voltage clamp of HarmOR42 orthologs, six-odorant screen; format: cell-based; conditions: six compounds at 10^−4 M; 11 species
Source text: We gathered additional experimental evidence to support this conservation of a PAA-sensing function by performing in vitro functional characterization of HarmOR42 orthologs from 11 lepidopteran species belonging to eight families (fig. 5B). […] It should be noted that the species studied here included three Noctuidae species (H. armigera, H. assulta, and Mythimna separata), four moths from Bombycidae (Bombyx mori), Crambidae (Chilo suppressalis), Sphingidae (Manduca sexta), and Tortricidae (Grapholitha molesta) ([Mitter et al. 2017]; [Kawahara et al. 2019]), and four diurnal butterfly species from diverse families (Vanessa tameamea, Papilio xuthus, Danaus plexippus, and Pieris rapae) (fig. 5B). […]
as §1, with “2010]).” for “2010]). Briefly, the full-length gene of each OR and Orco were subcloned into the eukaryotic expression vector pT7TS. cRNAs were generated from linearized expression vectors using the mMESSAGE mMACHINE T7 kit (Ambion, Austin, TX).”

O=CCc1ccccc1 [Phenylacetaldehyde]
response of RnubOR13 (RnubOR13): activated neither | attractiveness to wild-type moths vs solvent (H. armigera moths): more attractive to H. armigera moths than the solvent control, but the results were not statistically significant | response of the HarmOR repertoire (HarmOR repertoire): still responded | response of SlitOR14 (SlitOR14): high specificity and sensitivity | ligand tuning of HarmOR42 orthologs [1]: robustly tuned to PAA as its best ligand
